# Columns and labels:
# [1] = Mouse urine pharmacokinetics of mannosides (LC-MS); details: in vivo
# Method: Pharmacokinetic (PK) studies with ZFH-2056 evaluated in vivo dosing conditions after intraperitoneal (IP) injection or oral (PO) gavage. ZFH-2056 was dosed IP and compound levels in the urine were evaluated at several timepoints by HPLC using mass spectrometry (MS) detection. […] Since oral dosing is the desired route of delivery, we next evaluated the concentration of drug after 100 mg/kg PO of ZFH-2056.
# (§1) Pharamacokinetic analysis. For intraperitoneal dosing, 50 μl of a 2 mg/ml (5 mg/kg) or 4 mg/ml (10 mg/kg) solution of ZFH-2056 in PBS was injected into the peritoneal cavity of the mouse. For oral dosing, 100 μl of a 20 mg/ml (100 mg/kg) solution of ZFH-2056 in 8% DMSO was inoculated with a gavage needle into the mouse stomach. Urine was collected at 30 min, 1, 2, 3, 4, 6, and 8 h post-treatment. An equal volume of 10 μM internal standard (ZFH-2050) was added to the urine. Mannosides were extracted from the urine by loading on C18 columns (100 mg, Waters), washing with 30% methanol, and eluting with 60% methanol. […] Absolute quantification was achieved by comparison to a calibration curve.
# as §1, with “For” for “Pharamacokinetic analysis. For intraperitoneal dosing, 50 μl of a 2 mg/ml (5 mg/kg) or 4 mg/ml (10 mg/kg) solution of ZFH-2056 in PBS was injected into the peritoneal cavity of the mouse. For”
# UTI89 = assay: Mouse UTI model, bladder bacterial titers (CFU); format: in vivo, E. coli (UPEC); host C3H/HeN mouse; details: UTI89; 6 hpi; mannoside IP 30 min prior and/or TMP-SMZ 3 days in drinking water
# Method: For mannoside treatment, bacteria were incubated with 1 mM ZFH56 prior to inoculation. Every 24 h for 3 days, mice were transurethrally inoculated with 1 mM ZFH56. For antibiotic treatment, mice were inoculated with UTI89 and immediately given antibiotics in the drinking water for 3 days. Antibiotics used were trimethoprim-sulfamethoxazole (SXT) at […], respectively. For dual treatment, bacteria were incubated with 1 mM ZFH56 prior to inoculation. Every 24 h for 3 days, mice were transurethrally inoculated with 1 mM ZFH56. Additionally, mice were immediately given antibiotics in the drinking water for 3 days as in the antibiotic only treatment. Urine was collected every day for 13 days. At 2 weeks, mice were sacrificed and bladders were titered.
# UTI89 biofilm was grown in LB+/− mannoside for 24 h at 22° C. in PVC plates and quantitated using crystal violet. UTI89 biofilm for confocal microscopy was grown in LB for 24 h at 22° C. on PVC coverslips. Mannoside was then added and biofilm was grown for an additional 16 h. Coverslips were then washed in PBS, fixed in 2% paraformaldehyde and stained with SYTO9 prior to confocal microscopy. For all animal experiments UTI89 or PBC-1 was grown 2×24 h statically in LB at 37° C. and inoculated at a dose of 1×10^7 bacteria in 50 μl. All mice used were female C3H/HeN (Jackson). For the pretreatment studies, bacteria were incubated with mannoside for 20 min prior to inoculation into the mouse. […] For CFU counts, bladders were harvested at 6 hpi and placed in 1 mL PBS. Bladders were then homogenized, diluted and plated on LB. After growth at 37° C. overnight, bacterial counts were determined. LacZ staining and gentamicin protection assays were performed at 6 hpi. […] Water was changed daily with fresh antibiotics. Standard growth curve assays and hemagglutination assays were performed with TMP-SMZ. All statistical analysis performed was a two-tailed Mann-Whitney U test.
# Animal infections. Bacteria were grown under type 1 pili-inducing conditions (2×24 h at 37° C. statically in LB). The bacteria were harvested and resuspended to an OD600 of 0.5 in PBS. Eight-week-old C3H/HeN (Harlan) female mice were anesthetized by inhalation of isoflurane and infected via transurethral catheterization with 50 μl of the bacterial suspension, resulting in 1-2×10^7 inoculum. At 6 hpi, mice were sacrificed by cervical dislocation under anesthesia and the bladders were immediately harvested and processed as described below. All animal studies using mice were approved by the Animal Studies Committee of Washington University (Animal Protocol Number 20100002).
# Bladder tissue bacterial titer determination. Mannoside ZFH-2056 was administered either IP (5 mg/kg) or orally (100 mg/kg) 30 min prior to inoculation with UTI89. […]
# PBC-1 = assay: Growth curve / MIC determination in LB; format: cell-based, E. coli (UPEC); details: 100 μM mannoside, varying TMP-SMZ
# Method: Growth curve. […] Mannoside ZFH-2056 was added at 100 μM. Growth curves were performed in a 96-well plate at 37° C. with A600 readings taken every 30 min for 8 h.
# Mannoside 6 was added at 100 μM. Growth curves were performed in a 96-well plate at 37° C. with A600 readings taken every 30 min for 8 h. Minimum inhibitory concentration (MIC) was calculated as the lowest concentration of antibiotic that prevented growth of the bacterial strain.
smiles,measurement,setting,value
CNC(=O)c1cc(C(=O)NC)cc(-c2ccc(O[C@H]3O[C@H](CO)[C@@H](O)[C@H](O)[C@@H]3O)cc2)c1 [ZFH-2056],drug cleared to the urine intact / unchanged,[1],> 95%
same,hydrolysis products (D-mannose and phenol) in urine,[1],< 5%
same,level in urine,[1]; ip,≤ 740 nM
same,bladder bacterial CFUs,UTI89,significant drop in bacterial load
same,effect on efficacy of TMP-SMZ killing in vitro,PBC-1,not found to increase the efficacy of TMP-SMZ killing

# — US8937167B2 (Washington University, priority 2009, dated 2015)
